Source: the NIST ThermoML archive (doi:10.1016/j.jct.2012.11.020)
± gives the expanded uncertainty stated by the source.

Assay: wn = mass fraction of the nth substance listed
Details: 298.15 K, 100 kPa, Liquid, Alternating current cell with electrodes

C1CC[NH2+]C1.O=[N+]([O-])[O-] [pyrrolidinium nitrate] + CC1COC(=O)O1
Details	electrical conductivity [S/m]
w1 = 0.1266	0.874 ± 0.15
w1 = 0.1348	0.927 ± 0.15
w1 = 0.1441	0.989 ± 0.15
w1 = 0.1543	1.06 ± 0.16
w1 = 0.1646	1.12 ± 0.16
w1 = 0.1788	1.24 ± 0.16
w1 = 0.1948	1.32 ± 0.17
w1 = 0.2149	1.45 ± 0.18
w1 = 0.2396	1.62 ± 0.22
w1 = 0.2529	1.7 ± 0.21
w1 = 0.2692	1.94 ± 0.23
w1 = 0.2862	2.05 ± 0.25
w1 = 0.3073	2.2 ± 0.22
w1 = 0.3274	2.32 ± 0.23
w1 = 0.3479	2.46 ± 0.23
w1 = 0.3768	2.63 ± 0.24
w1 = 0.3915	2.71 ± 0.24
w1 = 0.4212	2.86 ± 0.26
w1 = 0.4476	3.05 ± 0.26
w1 = 0.4916	3.21 ± 0.27
w1 = 0.5453	3.46 ± 0.29
w1 = 0.5834	3.62 ± 0.3
w1 = 0.6211	3.74 ± 0.3
w1 = 0.6897	3.92 ± 0.32
w1 = 0.7407	4.12 ± 0.34
w1 = 0.8065	4.28 ± 0.35
w1 = 0.8913	4.47 ± 0.36
w1 = 1	4.22 ± 0.34
